Measurements reported in patent publication US4680285A, “Treatment of malignant tumors with 2-(β-D-ribofuranosylthiazole-4-carboxamide related compounds” (priority 1985, dated 1987).
“Also recorded” adds a separate entry of the source. Read-outs that look alike come from different tables or passages of the source.

Columns and labels:
[1] = tested on: P388 lymphocytic leukemia; test: P388 lymphocytic leukemia in vivo, median survival, 30-day test (Examples 7 and 8); design: species or system CD2 F1 female mice; conditions: for Percent Treated Animals/Control Animals / Treated Group Survival Time (median): Ex. 7a/8, saline with tween/80; for Treated Group Survival Time (median): control 12.6
Protocol: For examples 7 and 8, CD2 F1 female mice were used and challenged with P388 lymphocytic leukemia tumors. […] The test period was for thirty days in both Examples 7 and 8.
For Examples 7 and 8, as well as Examples 9 and 10 below, any animal of the drug treated group which survived beyond the end of the testing period was then evaluated and placed in one of three groups. The first group was designated as cured, meaning the animal was successfully cured of the tumor. The second group designation was no-takes, meaning survival of the animal was considered to be due to failure of tumor implant. The remaining group was designated as tumor survivors meaning the animals lived beyond the test cut-off date but could not be classified as either cured or no-takes.
For both Examples 7 and 8, thirty animals were used as the control group and six animals each were used at each dose level indicated in tables 3 and 4 below in the drug treated groups. In both Examples 7 and 8, for both the control group and the drug treated groups, tumors were induced by IP inoculation of tumor seed cells on day zero followed by initiation of drug treatment on day one. For both Examples 7a and 8, saline with tween/80 was used as the drug vehicle. For Examples 7b and 7c, water was used as the drug vehicle.
In both the control group and the drug treated group in Examples 7 and 8, the test animals were inoculated on day zero IP with 10^6 seed cells of P388 lymphocytic leukemia. In both Examples 7 and 8, treatment of the drug group was started on day one and the drug was given IP once daily for nine days. Day six was utilized as the cut-off data for death attributable to toxicity of the drug. […] Efficacy of treatment was determined by comparing median survival time of the drug treated animals compared to median survival time of the control animals, and is expressed as percentage increase of treated animals/control animals (T/C) as per Example 5.
In this example drug treated animals were injected IP with the dose level noted in Table 3 below. Six animals were treated at each dose level. No control animals survived beyond day 18 with a median death date of day 12.6.
This examples was performed as per Example 7a at dose levels as noted in table 3b below. A survivor at both the 700 and 800 mg/Kg level was judged as cured. No controls survived beyond day 12 and the mean death day of the control group was day 11.
This example was run as per Example 7a above at dose levels noted in Table 3c below. All controls were dead by day 14 with a mean death day of day 11.9. At the 500 mg/Kg level, one animal was judged as a cure.
Compound 2, 2-(2,3,5-tri-O-acetyl-β-D-ribofuranosyl)thiazole-4-carboxamide was tested as per Example 7a above at dose levels noted in Table 4 below. No controls survived beyond day 18 with an average death date of day 12.6.

[2] = tested on: P388 lymphocytic leukemia; format: in vivo, CD2 F1 female mice; conditions: for Percent Treated Animals/Control Animals / Treated Group Survival Time (mean): nine days; for Treated Group Survival Time (mean): control 10.2
Description: Compound 2, 2-(2,3,5-tri-O-acetyl-β-D-ribofuranosyl)thiazole-4-carboxamide was screened in a manner similar to that shown in Example 5, however, the tumor system used as the test tumor was P388 lymphocytic leukemia. 10^6 seed cells were used to initiate the tumor in both the control group and the drug treated group of animals. The same strain of mice was used except female mice were substituted for males. Test results were based on mean survival time and are expressed as T/C percentages (treated animals/control animals) as per Example 5.
In the drug treated animals, treatment was initiated one day after tumor inoculation and the drug was given at the dose levels noted below in table 2. Drug treatment was for nine days and drug toxicity, as in Example 5, was measured on day six.
Average day of death for the control group was 10.2 days whereas at the lowest level of drug treatment the treated animals survived for more than 15 days. As with Example 5, 125% increase in longevity of treated animals over control animals was taken as indicative of positive drug response.

type 3 rhinovirus = conditions: cited from earlier work
malignant tumors [3] = test: antitumor activity in vivo (general statements); conditions: summary statements
virus = conditions: cited from earlier work
[4] = tested on: type 3 parainfluenza virus; conditions: cited from earlier work
[5] = tested on: type 1 herpes simplex virus; conditions: cited from earlier work
L-1210 lymphoid leukemia = L-1210 lymphoid leukemia in vivo, mean survival (Example 11); design: species or system CD2 F1 male mice; conditions: for Percent Treated Animals Control Animals / Treated Group Survival Time (mean): saline
Description: For Example 9a and 9b, CD2 F1 male mice were used and challenged with L-1210 lymphoid leukemia. […] The test period was for thirty days. Test results are expressed as T/C as per Example 5.
In both the control groups and the drug treated groups in Examples 9a and 9b, the test animals were inoculated on day zero IP with 10^6 seed cells of L-1210 lymphoid leukemia. For Example 9a, drug treatment was started on day one and compound 1 given once daily for nine days. Day five was utilized as the cutoff date for death attributable to toxicity of the drug. […] Efficacy of treatment was determined by comparing mean survival time of drug treated animals with mean survival time of the control animals and is expressed as percentage increase of treated animals/control animals (T/C) as per Example 5.
The compound test dosage levels are as noted in tables 7a and 7b below for Example 11a and 11b respectively. In these examples, thirty-six control animals were used and six test animals each at the drug dose levels as is shown in tables 7a and 7b. Saline was used as the drug vehicle.
For both the control groups and the drug test groups, tumors were induced by IP inoculation of tumor seed cells on day zero followed by initiation of drug treatment on day one wherein compound 3 was given once daily for 5 days. Test results are expressed as T/C as per example 5.

malignant tumors [6] = conditions: known from literature; cited from earlier work
viruses = conditions: cited from earlier work

CC(=O)OC[C@H]1O[C@@H](c2nc(C(N)=O)cs2)[C@H](OC(C)=O)[C@@H]1OC(C)=O [Compound 2, 2-(2,3,5-Tri-O-Acetyl-β-D-Ribofuranosyl)thiazole-4-Carboxamide]
Percent Treated Animals/Control Animals ([1]; 12.5 mg/Kg IP once daily x9): 110% | Treated Group Survival Time (median) ([1]; 12.5 mg/Kg IP once daily x9): 13.7 days | Percent Treated Animals/Control Animals ([1]; 25 mg/Kg IP once daily x9): 113% | Treated Group Survival Time (median) ([1]; 25 mg/Kg IP once daily x9): 14.3 days | Percent Treated Animals/Control Animals ([1]; 50 mg/Kg IP once daily x9): 121% | Treated Group Survival Time (median) ([1]; 50 mg/Kg IP once daily x9): 15.3 days | Percent Treated Animals/Control Animals ([1]; 100 mg/Kg IP once daily x9): 145% | Treated Group Survival Time (median) ([1]; 100 mg/Kg IP once daily x9): 18.3 days | Percent Treated Animals/Control Animals ([1]; 200 mg/Kg IP once daily x9): 150% | Treated Group Survival Time (median) ([1]; 200 mg/Kg IP once daily x9): 19.0 days | Percent Treated Animals/Control Animals ([1]; 400 mg/Kg IP once daily x9): 161% | Treated Group Survival Time (median) ([1]; 400 mg/Kg IP once daily x9): 20.3 days | surviving animals judged as no-take ([1]; Ex. 7a/8, 50 mg/Kg, thirty days): one surviving animal was judged as a no-take | activity against P388 lymphocytic leukemia ([1]; Examples 7 and 8, multiple dose): active antitumor agents; also recorded: active against P388 lymphocytic leukemia | DN 2 (Decision Network) criteria of the National Cancer Institute ([1]; P388): successfully passed | Percent Treated Animals/Control Animals ([2]; 50 mg/Kg IP): 150% | Treated Group Survival Time (mean) ([2]; 50 mg/Kg IP): 15.3 days | Percent Treated Animals/Control Animals ([2]; 100 mg/Kg IP): 176% | Treated Group Survival Time (mean) ([2]; 100 mg/Kg IP): 18.0 days | Percent Treated Animals/Control Animals ([2]; 200 mg/Kg IP): 179% | Treated Group Survival Time (mean) ([2]; 200 mg/Kg IP): 18.3 days | survival of treated animals ([2]; lowest level of drug treatment, control 10.2 days): more than 15 days | in vitro antiviral activity (type 3 rhinovirus): negative | antitumor activity (malignant tumors [3]): effective antitumor agent when injected intraperitoneally | number of deaths of test animals vs placebo control animals (virus; in vivo antiviral tests): equal to or exceeded the number of deaths of the placebo control animals | in vivo antiviral activity (virus; in vivo): negative | in vitro antiviral activity [4]: negative | in vitro antiviral activity [5]: only moderate activity

NC(=O)c1csc([C@@H]2O[C@H](COP(=O)(O)O)[C@@H](O)[C@H]2O)n1 [Compound 3, 2-(5-O-Phosphoryl-β-D-Ribofuranosyl)thiazole-4 Carboxamide]
antitumor activity (malignant tumors [3]): effective in vivo antitumor agents | Percent Treated Animals Control Animals (L-1210 lymphoid leukemia; Ex. 11a, 50 mg/Kg once daily x5): 136% | Treated Group Survival Time (mean) (L-1210 lymphoid leukemia; Ex. 11a, 50 mg/Kg once daily x5, control 8.3): 11.3 days | Percent Treated Animals Control Animals (L-1210 lymphoid leukemia; Ex. 11a, 100 mg/Kg once daily x5): 186% | Treated Group Survival Time (mean) (L-1210 lymphoid leukemia; Ex. 11a, 100 mg/Kg once daily x5, control 8.3): 15.5 days | Percent Treated Animals Control Animals (L-1210 lymphoid leukemia; Ex. 11a, 200 mg/Kg once daily x5): 259% | Treated Group Survival Time (mean) (L-1210 lymphoid leukemia; Ex. 11a, 200 mg/Kg once daily x5, control 8.3): 21.5 days | Percent Treated Animals Control Animals (L-1210 lymphoid leukemia; Ex. 11a, 400 mg/Kg once daily x5): 183% | Treated Group Survival Time (mean) (L-1210 lymphoid leukemia; Ex. 11a, 400 mg/Kg once daily x5, control 8.3): 15.2 days | Percent Treated Animals Control Animals (L-1210 lymphoid leukemia; Ex. 11a, 800 mg/Kg once daily x5): 196% | Treated Group Survival Time (mean) (L-1210 lymphoid leukemia; Ex. 11a, 800 mg/Kg once daily x5, control 8.3): 16.3 days | Percent Treated Animals Control Animals (L-1210 lymphoid leukemia; Ex. 11b, 50 mg/Kg once daily x5): 128% | Treated Group Survival Time (mean) (L-1210 lymphoid leukemia; Ex. 11b, 50 mg/Kg once daily x5, control 10.1): 13.0 days | Percent Treated Animals Control Animals (L-1210 lymphoid leukemia; Ex. 11b, 100 mg/Kg once daily x5): 121% | Treated Group Survival Time (mean) (L-1210 lymphoid leukemia; Ex. 11b, 100 mg/Kg once daily x5, control 10.1): 12.3 days | Percent Treated Animals Control Animals (L-1210 lymphoid leukemia; Ex. 11b, 200 mg/Kg once daily x5): 145% | Treated Group Survival Time (mean) (L-1210 lymphoid leukemia; Ex. 11b, 200 mg/Kg once daily x5, control 10.1): 14.7 days | Percent Treated Animals Control Animals (L-1210 lymphoid leukemia; Ex. 11b, 400 mg/Kg once daily x5): 155% | Treated Group Survival Time (mean) (L-1210 lymphoid leukemia; Ex. 11b, 400 mg/Kg once daily x5, control 10.1): 15.7 days | Percent Treated Animals Control Animals (L-1210 lymphoid leukemia; Ex. 11b, 600 mg/Kg once daily x5): 160% | Treated Group Survival Time (mean) (L-1210 lymphoid leukemia; Ex. 11b, 600 mg/Kg once daily x5, control 10.1): 16.2 days | activity against L-1210 lymphoid leukemia (L-1210 lymphoid leukemia; Examples 11a and 11b): active against L-1210 lymphoid leukemia | drug toxicity (L-1210 lymphoid leukemia; Examples 11a and 11b, 50-800 mg/Kg): No drug toxicity was noted

NC(=O)c1ncn([C@@H]2O[C@H](COP(=O)(O)O)[C@@H](O)[C@H]2O)n1 [RIBAVIRIN 5' monophosphate]
antitumor activity (malignant tumors [6]): inactive as antitumor compounds

NC(=O)c1ncn([C@@H]2O[C@H](CO)[C@@H](O)[C@H]2O)n1 [RIBAVIRIN, reference compound]
in vitro antiviral activity (viruses): active in vitro antiviral agent | antitumor activity (malignant tumors [6]): no significant antitumor activity
